US11325892B2, “Compounds and methods for treating cancer” (Mayo Foundation for Medical Education and Research, priority 2014, dated 2022)

Tests used:
Format in all cases: cell-based
[1] = test system: PARP cleavage and CHOP expression in THJ29T and THJ16T; experiment: Western blot for PARP cleavage and CHOP expression, combinatorial therapy; conditions: EC50 doses, 48H
Method: Protein extraction and western blot analysis was performed as previously described (Copland J A, Marlow L A, Kurakata S, et al. Novel high-affinity PPARgamma agonist alone and in combination with paclitaxel inhibits human anaplastic thyroid carcinoma tumor growth via p21WAF1/CIP1. Oncogene. Apr 13 2006; 25(16):2304-2317). Primary antibodies included SCD1 (Sigma-Aldrich, #HPA012107), BiP (Cell Signaling, #3183), CHOP (Cell Signaling, #2895), sXBP1(Santa Cruz Biotechnology, #sc-7160), PARP(Cell Signaling, #9542), and β-actin (Sigma-Aldrich, #A5441).
THJ29T and THJ16T treated for 48H with EC50 doses of either A939572 or MF-438 in combination with either carfilzomib or bortezomib were probed for PARP cleavage and CHOP expression, both markers indicative of apoptosis (FIGS. 14A-B, 15A-B). […] Cell death was additionally examined via flow cytometry using propidium iodide staining. THJ29T and THJ16T were treated for 48H with EC50 doses of either A939572 or MF-438 in combination with either carfilzomib or bortezomib prior to staining and analysis.

[2] = test system: THJ29T, THJ16T and KTC2 cells; experiment: Oleic acid rescue of proliferation in ATC cells; conditions: EC50 dose for 72H with 5 μM oleic acid
Method: Cells were seeded at 5,000 cells/well in clear-bottom 96-well plates in triplicate in Maintenance Media. Drug treatment was applied at a concentration of 1:1000 in reduced serum (3%) Maintenance Media. After 72 hours, cells were washed with PBS, and stored at −80° C. prior to analysis using CyQuant® Proliferation Analysis Kit (Invitrogen) as per manufacturers' protocol for relative fluorescence units. Alternatively, cells were plated 2×10^5/well in 12-well plates (Midwest Scientific) in triplicate prior to drug treatment. After 120 hour treatment, cell number was established using a Coulter Particle Counter (Beckman). Or, cells were plated (0.5 or 1×10^5/well) in 24-well plates (Midwest Scientific), 3×. After 72 hour treatment, cell number established using Coulter Particle Counter (Beckman). Oleic acid-albumin (Sigma Aldrich) was added to media at 5 μM, and was applied adjuvant to drug treatment. Drug stocks were prepared in DMSO (Sigma) at 1000×. EC50 dosing per cell line was calculated using CalcuSyn® analytical software. […]

ATC cells = experiment: Proliferative dose response of thyroid cells; conditions: ATC cells; for proliferation: 72H treatment; for 50% effective concentrations (EC50): proliferation
Method: (§1) Cells were seeded at 5,000 cells/well in clear-bottom 96-well plates in triplicate in Maintenance Media. Drug treatment was applied at a concentration of 1:1000 in reduced serum (3%) Maintenance Media. After 72 hours, cells were washed with PBS, and stored at −80° C. prior to analysis using CyQuant® Proliferation Analysis Kit (Invitrogen) as per manufacturers' protocol for relative fluorescence units. Alternatively, cells were plated 2×10^5/well in 12-well plates (Midwest Scientific) in triplicate prior to drug treatment. After 120 hour treatment, cell number was established using a Coulter Particle Counter (Beckman). Or, cells were plated (0.5 or 1×10^5/well) in 24-well plates (Midwest Scientific), 3×. After 72 hour treatment, cell number established using Coulter Particle Counter (Beckman). Oleic acid-albumin (Sigma Aldrich) was added to media at 5 μM, and was applied adjuvant to drug treatment. Drug stocks were prepared in DMSO (Sigma) at 1000×. EC50 dosing per cell line was calculated using CalcuSyn® analytical software.
(§2) The efficacy of pharmacologic inhibition of this enzyme on tumor cell proliferation after a 72H treatment was determined, using A939572-a commercially available small molecule SCD1 inhibitor (Xin Z, Zhao H, Serby M D, Liu B, Liu M, Szczepankiewicz B G, Nelson L T, Smith H T, Suhar T S, Janis R S, Cao N, Camp H S, Collins C A, Sham H L, Surowy T K, Liu G. Discovery of piperidine-aryl urea-based stearoyl-CoA desaturase 1 inhibitors. Bioorg Med Chem Lett. 2008; 18(15):4298-302). […] Despite conspicuous SCD1 expression in 4 of the 5 FTC cells tested, no response to A939572 was observed (FIG. 10D).
THJ29T, THJ16T, and KTC2 were treated with carfilzomib (FIG. 12A) or bortezomib for 72H in order to establish EC50 values. […] Anti-proliferative drug synergy was evaluated in THJ29T and THJ16T treated with either A939572 or MF-438 in combination with either bortezomib or carfilzomib for 48H. Synergy was assessed using CalcuSyn analytical software, which determines the combination index (CI) based on the Chou-Talalay method where CI values >1 represent an antagonistic effect and values <1 represent synergy, and lower values signify enhanced synergy (Chou T C, Talalay P. Analysis of Combined Drug Effects—a New Look at a Very Old Problem. Trends in Pharmacological Sciences. 1983; 4(11):450-4).

NT or FA cells = experiment: Proliferative dose response of thyroid cells; conditions: 72H treatment
Method: as §1, §2

PTC cells = experiment: Proliferative dose response of thyroid cells; conditions: 72H treatment; 2/5 PTC cells at high doses
Method: as §1, §2

FTC cells = experiment: Proliferative dose response of thyroid cells; conditions: 72H treatment
Method: as §1, §2

[3] = test system: A498, ACHN, and Caki1 cell lines; experiment: Oleic acid (OA) rescue assay of cell proliferation in ccRCC cells; conditions: EC50 dose of compound with OA (5 μg/μL); all three cell lines
Method: as §1
A498, ACHN, and Caki1 cell lines were treated with the EC50 dose of each MF-438, ChemBL375265, SSI-1, SSI-4, SSI-3, and SSI-2 with or without concomitant application of OA (5 μg/μL). […] Representative images of A498 cell morphology and density treated with each compound +/−OA are shown in (FIG. 2B).

Structure (SMILES) | PARP cleavage as compared to DMSO control [1] | rescue of proliferation with OA [2] | proliferation (ATC cells) | 50% effective concentrations (EC50) (ATC cells) | proliferative response (NT or FA cells) | proliferative response (PTC cells) | proliferative response (FTC cells) | rescue of cell proliferation with OA [3]
CNC(=O)c1cccc(NC(=O)N2CCC(Oc3ccccc3Cl)CC2)c1 [A939572] | significant PARP cleavage | complete rescue of proliferation | dose-dependent decrease in proliferation | low nanomolar dose range | No response | minimal response | no response | 
Cc1nnc(-c2ccc(N3CCC(Oc4ccccc4C(F)(F)F)CC3)nn2)s1 [MF-438, 2-methyl-5-(6-(4-(2-(trifluoromethyl)phenoxy)piperidin-1-yl)pyridazin-3-yl)-1,3,4-thiadiazole] | significant PARP cleavage | complete rescue of proliferation | dose-dependent decrease in ATC proliferation | low nanomolar dose range |  |  |  | Near total rescue of cell proliferation
